In test [1] the test system is BAF155 me2a. The test is described as follows: BAF155 me2a level in BT474 cells, western blot. The following applies: 0.5 μM, after 48 h. In kind it is cell-based. The source says: (§1) FIGS. 7A-7F. […] Cell lysates were collected and CARM1, methyl-BAF155, total BAF155, methyl-PABP1, and total PABP1 levels were detected by Western blot. […] Cell lysates were collected and CARM1, methyl-BAF155, total BAF155 levels were detected by Western blot. […] Cell proliferation rate normalized to day 0 was plotted. […] Migrated cells were stained with 1% crystal violet and the percentage of migrated cells were plotted. Data mean±s.d. ***. P≤0.001.
(§2) Western Blot Assay. Cells were harvested and washed with Dulbecco's phosphate-buffered saline (PBS), then lysed with 1×RIPA lysis buffer (50 mM Tris pH 7.5, 150 mM NaCl, 1% NP-40, 0.5% sodium deoxycholate, and 0.1% sodium dodecyl sulfate) supplemented with 1 mM phenylmethylsulfonyl fluoride, 10 μg/mL aprotinin, 1 μM leupeptin, and 10 μg/mL pepstatin on ice for 20 min. The supernatant was collected after spinning down at 15000 RPM at 4 degrees Celsius for 10 min. The concentration of whole lysates was quantified using a Bradford assay. 50-75 μg of cell lysates was boiled in 4× Laemmli Loading Dye and boiled at 100 degrees Celsius for 10 min. 25 μg were run in 8% SDS-PAGE gels and transferred to nitrocellulose membranes. Blots were blocked in 5% skim milk in PBST [PBS and 0.1% Tween 20] for 45 min, then incubated with primary antibodies at 4 degrees Celsius overnight. […]

Test [2] deals with BAF155 me2a. Kind of test: BAF155 me2a level in MDA-MB-231 cells, western blot. The class given is cell-based. The following applies: 0.5 μM, after 48 h.
Text: as §1, §2
A general note: A western blot detects proteins with antibodies after separation by electrophoresis.

For test [3], the system named is MDA-MB-231 cells. The test is described as follows: Cell proliferation assay, MDA-MB-231 cells. In kind it is cell-based. To be noted: 0.5 μM, 7 days. How it is done: Cell Proliferation Assay. Cell proliferation was measured by direct cell count via high contrast brightfield microscopy. MDA-MB-231 cells (3×10^3/well) were seeded in 100 μL of DMEM into the wells of a 96-well plate. Cells were treated with either DMSO, TP-064, or 3b and refreshed every two days. The plate was imaged daily for 7 days using the High-Contrast Brightfield Kit for Label-Free Cell Counting (BioTek) on the BioTek Imager.

For a further test, the system named is MCF10A cells. The test is described as follows: Cell proliferation assay, MCF10A cells. In kind it is cell-based, human. To be noted: 0.5 μM.
For test [4], the system named is MDA-MB-231 cells. The test is described as follows: Transwell migration assay, MDA-MB-231 cells. In kind it is cell-based. On the procedure:
Transwell Migration Assay. Cells were harvested and washed in serum-free DMEM. The wells of a 24-well plate were filled with 800 μL of DMEM with 10% FBS. Transwell inserts with […] pore size were then added to the wells with DMEM. Cells were resuspended in serum-free DMEM, then 1×10^5 cells in 200 μL were added to the upper chambers. Drug treatments were added to the lower chambers, then incubated for 20 h at 37° C. The cells on the upper surface were removed with cotton swabs. Migratory cells were fixed in 3.7% formaldehyde at room temperature, followed by 100% methanol at −20° C. Fixed cells were stained with 1% crystal violet in 20% methanol for 30 min. The migration area was quantified from five independent fields of view of the lower surface of the membrane under a microscope.

In another test the target is T1, CARM1 (Homo sapiens, UniProt Q86X55).
T1 sequence (Q86X55 1-608): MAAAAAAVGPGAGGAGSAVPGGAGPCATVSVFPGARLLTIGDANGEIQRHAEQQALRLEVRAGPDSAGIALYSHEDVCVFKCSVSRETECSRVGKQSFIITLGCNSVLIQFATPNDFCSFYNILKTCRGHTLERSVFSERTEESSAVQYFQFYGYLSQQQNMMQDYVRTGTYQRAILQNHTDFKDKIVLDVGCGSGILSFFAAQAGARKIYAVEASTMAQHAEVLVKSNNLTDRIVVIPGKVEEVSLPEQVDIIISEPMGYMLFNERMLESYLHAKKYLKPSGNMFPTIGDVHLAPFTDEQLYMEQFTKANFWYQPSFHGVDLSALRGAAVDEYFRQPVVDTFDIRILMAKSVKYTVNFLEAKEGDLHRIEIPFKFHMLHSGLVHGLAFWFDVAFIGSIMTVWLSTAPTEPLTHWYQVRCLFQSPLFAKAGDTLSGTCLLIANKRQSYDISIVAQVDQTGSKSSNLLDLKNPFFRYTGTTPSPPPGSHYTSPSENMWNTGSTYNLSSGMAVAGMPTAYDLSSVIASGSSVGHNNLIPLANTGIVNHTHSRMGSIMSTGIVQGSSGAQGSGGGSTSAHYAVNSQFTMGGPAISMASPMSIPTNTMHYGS
Kind of test: CARM1 degradation by western blot in MCF10A cells. The class given is cell-based. The following applies: normal human mammary epithelial cell model. Details: endogenous in cells. On the procedure: FIG. 5. […] Cell lysates were collected and the CARM1 levels were detected by western blots.
as §2, with “overnight. Blots were washed in PBST for 30 min, then incubated with horseradish peroxidase-linked secondary antibodies (Jackson ImmunoResearch) for 1 hr. Afterwards, blots were washed in PBST for 15-30 min, then treated with chemiluminescent ECL reagent and imaged with the ChemiDoc Imaging System (Bio-Rad) or Azure 600 (Azure Biosystems).” for “overnight.”

Experimental findings from patent publication US20250222120A1, “SYNTHESIS OF NOVEL SMALL MOLECULE CARM1 DEGRADERS, COMPOUNDS FORMED THEREBY, AND PHARMACEUTICAL COMPOSITIONS CONTAINING THEM” (Wisconsin Alumni Research Foundation, priority 2024, published 2025) are described below.

For `CNCCN1CCC(c2cc(CN(C)C(=O)c3cccc(Oc4ccc(OCC(=O)N5CCC(CN6CCC(CN7CCN(CC(=O)N[C@H](C(=O)N8C[C@H](O)C[C@H]8C(=O)N[C@@H](C)c8ccc(-c9scnc9C)cc8)C(C)(C)C)CC7)CC6)CC5)cc4)c3)ccn2)CC1` [Compound 3b, (2S,4R)-1-((S)-3,3-dimethyl-2-(2-(4-((1-((1-(2-(4-(3-(methyl((2-(1-(2-(methylamino)ethyl)piperidin-4-yl)pyridin-4-yl)methyl)carbamoyl)phenoxy)phenoxy)acetyl)piperidin-4-yl)methyl)piperidin-4-yl)methyl)piperazin-1-yl)acetamido)butanoyl)-4-hydroxy-N—((S)-1-(4-(4-methylthiazol-5-yl)phenyl)ethyl)pyrrolidine-2-carboxamide], the “BAF155 me2a level” value with BAF155 me2a [1] and in the test with BAF155 me2a [2] was “decrease of BAF155 me2a level was observed” throughout. Moreover, the Cell proliferation result in the test on MDA-MB-231 cells [3] and with MCF10A cells was “not to inhibit cell proliferation” each time. The “Dose lower than the corresponding inhibitor for the same anti-migratory effects” value in the test on MDA-MB-231 cells [4] (0.5 μM 3b versus 10 μM TP-064) was determined as 20 fold. The Cell migration result with MDA-MB-231 cells [4] (0.5 μM, transwell, 20 h) is “inhibited cell migration at a similar level”. At CARM1, the CARM1 degradation entry is “high potency for CARM1 degradation”.
